Measured values from patent publication US20200045962A1, “METHOD FOR PREPARING SURFACTANT COMPOSITIONS COMPRISING ALKYL LIDURONAMIDES D-GLUCURONAMIDES AND L-RHAMNOSIDES FROM ULVANS” (ÉCOLE NATIONALE SUPÉRIEURE DE CHIMIE, priority 2016, published 2020).

Assays:
Assay in all cases: Protocol A: diffusion on agar in Petri dishes
Assay type in all cases: cell-based
[1] = test system: Enterococcus faecium
Method: (§1) The culture medium used was a mixture of 21 g/L of Muller-Hinton broth and 10 g/L of agar in water. This mixture was stirred and then left to boil. Next, a step of autoclaving of this mixture for 30 minutes was necessary in order to sterilize it before any manipulation. This culture medium was poured, while hot, into Petri dishes and then left to cool.
(§2) 5 milligrams of RhamOC4 were dissolved in 1 mL of DMSO. Twofold serial dilution with DMSO was then performed starting with the stock solution, so as to obtain the concentrations 2.5 g·L^−1, 1.25 g·L^−1, 0.625 g·L^−1 and 0.3125 g·L^−1.
(§3) The bacterial strains used were Pseudomonas aeruginosa, Escherichia coli, Enterococcus faecium and Staphylococcus aureus, in addition to the fungal strain Candida albicans. 10^6 bacteria were collected and then transferred into a 0.9% NaCl solution. Each Petri dish, containing the Muller-Hinton medium, was inoculated with a different bacterial suspension.
(§4) After having left the bacterial suspensions to dry on the agar, 10 μL of the test solution (RhamOC4), at various concentrations, were deposited on the surface of the agar inoculated with the bacterial suspension. 10 μL of DMSO were placed in each Petri dish as negative control.
(§5) The positive controls used were discs soaked with ampicillin for Escherichia coli and Enterococcus faecium, ceftazidim discs for Pseudomonas aeruginosa and vancomycin discs for Staphylococcus aureus.
(§6) After drying, the Petri dishes were finally incubated at 37° C. in an oven for 24 hours. The antibacterial activity was evaluated by measuring the clarification zone in mm around the place of deposition of the various concentrations of the test RhamOC4 solution.

[2] = test system: Escherichia coli
Method: as §1, §2, §3, §4, §5, §6

[3] = test system: Pseudomonas aeruginosa
Method: as §1, §2, §3, §4, §5, §6

[4] = test system: Staphylococcus aureus
Method: as §1, §2, §3, §4, §5, §6

[5] = test system: Candida albicans
Method: as §1, §2, §3, §4, §6

[6] = antibiotic disc, concentration not given

## CC1(C)S[C@@H]2[C@H](NC(=O)[C@H](N)c3ccccc3)C(=O)N2[C@H]1C(=O)O [Ampicillin, ampicillin, reference compound]
[1]; [6]
  Clarification zone, E. faecium, positive control: (26 mm)
[2]; [6]
  Clarification zone, E. coli, positive control: (22 mm)

## CC(C)(O/N=C(\C(=O)N[C@@H]1C(=O)N2C(C(=O)[O-])=C(C[n+]3ccccc3)CS[C@H]12)c1csc(N)n1)C(=O)O [Ceftazidim, ceftazidim, reference compound]
[3]; [6]
  Clarification zone, P. aeruginosa, positive control: (28 mm)

## CCCCO[C@@H]1O[C@@H](C)[C@H](O)[C@@H](O)[C@H]1O [RhamOC4, n-butyl α-L-rhamnopyranoside]
[4]; Staphylococcus aureus, 0.3125 mg·mL^−1, 10 μL, 24 hours 37° C., read-out: Clarification zone, S. aureus
  zone of inhibition at 0.3125 mg/mL: 0 mm
[4]; Staphylococcus aureus, 0.625 mg·mL^−1, 10 μL, 24 hours 37° C., read-out: Clarification zone, S. aureus
  zone of inhibition at 0.625 mg/mL: 0 mm
[4]; Staphylococcus aureus, 1.25 mg·mL^−1, 10 μL, 24 hours 37° C., read-out: Clarification zone, S. aureus
  zone of inhibition at 1.25 mg/mL: 5 mm
[4]; Staphylococcus aureus, 2.5 mg·mL^−1, 10 μL, 24 hours 37° C., read-out: Clarification zone, S. aureus
  zone of inhibition at 2.5 mg/mL: 5 mm
[4]; Staphylococcus aureus, 5 mg·mL^−1, 10 μL, 24 hours 37° C., read-out: Clarification zone, S. aureus
  zone of inhibition at 5 mg/mL: 10.5 mm
[4]; summary of agar diffusion
  Capacity to inhibit growth of Staphylococcus aureus: very good capacity to inhibit the growth
[1]; Enterococcus faecium, 0.3125 mg·mL^−1, 10 μL, 24 hours 37° C., read-out: Clarification zone, E. faecium
  zone of inhibition at 0.3125 mg/mL: 0 mm
[1]; Enterococcus faecium, 0.625 mg·mL^−1, 10 μL, 24 hours 37° C., read-out: Clarification zone, E. faecium
  zone of inhibition at 0.625 mg/mL: 0 mm
[1]; Enterococcus faecium, 1.25 mg·mL^−1, 10 μL, 24 hours 37° C., read-out: Clarification zone, E. faecium
  zone of inhibition at 1.25 mg/mL: 0 mm
[1]; Enterococcus faecium, 2.5 mg·mL^−1, 10 μL, 24 hours 37° C., read-out: Clarification zone, E. faecium
  zone of inhibition at 2.5 mg/mL: 4 mm
[1]; Enterococcus faecium, 5 mg·mL^−1, 10 μL, 24 hours 37° C., read-out: Clarification zone, E. faecium
  zone of inhibition at 5 µg/mL: 6 mm
[2]; Escherichia coli, 0.3125 mg·mL^−1, 10 μL, 24 hours 37° C., read-out: Clarification zone, E. coli
  zone of inhibition at 0.3125 mg/mL: 0 mm
[2]; Escherichia coli, 0.625 mg·mL^−1, 10 μL, 24 hours 37° C., read-out: Clarification zone, E. coli
  zone of inhibition at 0.625 mg/mL: 0 mm
[2]; Escherichia coli, 1.25 mg·mL^−1, 10 μL, 24 hours 37° C., read-out: Clarification zone, E. coli
  zone of inhibition at 1.25 mg/mL: 0 mm
[2]; Escherichia coli, 2.5 mg·mL^−1, 10 μL, 24 hours 37° C., read-out: Clarification zone, E. coli
  zone of inhibition at 2.5 mg/mL: 4 mm
[2]; Escherichia coli, 5 mg·mL^−1, 10 μL, 24 hours 37° C., read-out: Clarification zone, E. coli
  zone of inhibition at 5 mg/mL: 9 mm
[3]; Pseudomonas aeruginosa, 0.3125 mg·mL^−1, 10 μL, 24 hours 37° C., read-out: Clarification zone, P. aeruginosa
  zone of inhibition at 0.3125 mg/mL: 0 mm
[3]; Pseudomonas aeruginosa, 0.625 mg·mL^−1, 10 μL, 24 hours 37° C., read-out: Clarification zone, P. aeruginosa
  zone of inhibition at 0.625 mg/mL: 0 mm
[3]; Pseudomonas aeruginosa, 1.25 mg·mL^−1, 10 μL, 24 hours 37° C., read-out: Clarification zone, P. aeruginosa
  zone of inhibition at 1.25 mg/mL: 0 mm
[3]; Pseudomonas aeruginosa, 2.5 mg·mL^−1, 10 μL, 24 hours 37° C., read-out: Clarification zone, P. aeruginosa
  zone of inhibition at 2.5 mg/mL: 0 mm
[3]; Pseudomonas aeruginosa, 5 mg·mL^−1, 10 μL, 24 hours 37° C., read-out: Clarification zone, P. aeruginosa
  zone of inhibition at 5 mg/mL: 4 mm
[3]; summary of agar diffusion
  Inhibitory power on growth of Pseudomonas aeruginosa: poor inhibitory power
[5]; Candida albicans, 0.3125 mg·mL^−1, 10 μL, 24 hours 37° C., read-out: Clarification zone, C. albicans
  zone of inhibition at 0.3125 mg/mL: 0 mm
[5]; Candida albicans, 0.625 mg·mL^−1, 10 μL, 24 hours 37° C., read-out: Clarification zone, C. albicans
  zone of inhibition at 0.625 mg/mL: 0 mm
[5]; Candida albicans, 1.25 mg·mL^−1, 10 μL, 24 hours 37° C., read-out: Clarification zone, C. albicans
  zone of inhibition at 1.25 mg/mL: 5 mm
[5]; Candida albicans, 2.5 mg·mL^−1, 10 μL, 24 hours 37° C., read-out: Clarification zone, C. albicans
  zone of inhibition at 2.5 mg/mL: 14 mm
[5]; Candida albicans, 5 mg·mL^−1, 10 μL, 24 hours 37° C., read-out: Clarification zone, C. albicans
  zone of inhibition at 5 mg/mL: 18 mm
[5]; summary of agar diffusion
  Capacity to inhibit growth of Candida albicans: very good capacity to inhibit the growth

## CN[C@H](CC(C)C)C(=O)N[C@H]1C(=O)N[C@@H](CC(N)=O)C(=O)N[C@H]2C(=O)N[C@H]3C(=O)N[C@H](C(=O)N[C@H](C(=O)O)c4cc(O)cc(O)c4-c4cc3ccc4O)[C@H](O)c3ccc(c(Cl)c3)Oc3cc2cc(c3O[C@@H]2O[C@H](CO)[C@@H](O)[C@H](O)[C@H]2O[C@H]2C[C@](C)(N)[C@H](O)[C@H](C)O2)Oc2ccc(cc2Cl)[C@H]1O [Vancomycin, vancomycin, reference compound]
[4]; [6]
  Clarification zone, S. aureus, positive control: (19 mm)
